# Reference: article PMC11864979, “First-in-class ultralong-target-residence-time p38α inhibitors as a mitosis-targeted therapy for colorectal cancer” (Nature Cancer, 2025)
# Several values for one entry are separate records, joined by “and”; a condition that tells them apart may be missing. Identical values can stand only once. Like-named read-outs stand apart in the source and are kept apart here.
# Columns and labels:
# [1] = full blood analysis of mice treated for 4 days or 10 weeks (Sysmex KX-21N); type: in vivo, mouse; conditions: for Hemoglobin / MCV / MCH / MCHC: individual animals; for Hemoglobin: ED Fig. 10a; for MCV: ED Fig. 10b; for MCH: ED Fig. 10c; for MCHC: ED Fig. 10d; for Hematocrit (%): mice
# Source text: We conducted a daily treatment of wild-type mice with 2015 or carrier for either 4 days or 10 weeks and subsequently quantified leukocytes, platelets and erythrocytes. Furthermore, we determined the hematocrit and the hemoglobin concentration and calculated routinely used red blood cell indices (mean corpuscular volume (MCV), mean corpuscular hemoglobin (MCH) and mean corpuscular hemoglobin concentration (MCHC)). […] No mice were excluded during treatment studies. […] GFP imaging of tumors was performed using a Hamamatsu imaging system. For quantification of compounds in the murine plasma, 20 μl of tail-vein blood was diluted with 80 μl of heparin solution, before 200 μl of ice-cold acetonitrile with a defined internal standard was added. The samples were sonicated and centrifuged and the supernatant was subjected to liquid chromatography-mass spectrometry quantification. Full blood analyses were performed with the Sysmex KX-21N hematology analyzer.
# KAP^2D cells = assay: cell size and DNA content analysis in KAP^2D cells (flow cytometry); type: cell-based, mouse; conditions: 1 µM, 1 day
# Method: For DNA content analysis, cells were fixed with ethanol, washed and resuspended in PBS containing 50 µg ml^−1 propidium iodide (Invitrogen) and 250 µg ml^−1 RNase A (Qiagen). Apoptosis was analyzed with the FITC annexin V apoptosis detection kit (Biolegend). Both measurements were performed with FACS Canto II (BD) and physical parameters were used to exclude cell debris and cell doublets.
# [2] = histological evaluation of small intestine, colon and liver of treated mice; type: in vivo, mouse
# Method: Histopathological evaluation of colorectal tumors and healthy tissues was performed by experienced pathologists (S.S. for murine or human tumors and tissues; G.O. for human tumors). Hematoxylin and eosin (H&E) staining was performed on paraffin-embedded sections using 0.5% eosin and 0.5% hematoxylin.
# [3] = system: SCC311 human colon organoids; assay: cell viability in healthy human colon organoids SCC311; type: cell-based; conditions: for Cell viability (%): ED Fig. 10f, replicates
# Method: (§1) Primary tumor material was chopped, washed in ice-cold medium and transferred into basic medium (Supplementary Table 17), supplemented with 2.5 mg ml^−1 collagenase II (Thermo Fisher Scientific), 2.5 mg ml^−1 collagenase XI (Sigma-Aldrich), 1 mg ml^−1 Dispase II (Sigma-Aldrich), 100 µg ml^−1 DNase I and 10.5 µM Y-27632 dihydrochloride (Invitrogen). Tumor digestion was performed at 37 °C and stopped by adding medium containing 10% FBS. The mixture was centrifuged for 5 min at 300g. Red blood cells were removed with ACK lysing buffer (Thermo Fisher Scientific; 5 min at room temperature) and the pellet was resuspended in medium. Approximately 1,000 cells were resuspended and plated in 50 µl of Cultrex RGF BME, type 2 (R&D Systems). The ascites material was pelleted by centrifugation at 300g and washed three times with ice-cold PBS. Human CRC organoids were cultured in human CRC medium (Supplementary Table 17) at 37 °C and 7% CO2. Within the first week, the medium was supplemented with 10.5 µM Y-27632 dihydrochloride (Invitrogen). The human colon organoids (SCC311 and SCC321) were purchased from Sigma-Aldrich and cultured in human colon medium (Supplementary Table 17) at 37 °C and 7% CO2. They were derived from participants with the following sex and age: […].
# (§2) For in vitro treatment studies, organoids were mechanically dissociated and digested using TrypLE supplemented with 100 µg ml^−1 DNaseI and 10.5 µM Y-27632 dihydrochloride (Invitrogen) at 37 °C. A total of 1,000–2,000 single cells were plated per well in white 96-well plates (Greiner) in culture medium containing 10% GFR Matrigel or Cultrex BME. The treatment with doxycycline (5 µg ml^−1), pharmacological inhibitors or corresponding volumes of DMSO was started 24 h after plating. Doxycycline was obtained from Sigma-Aldrich. […] Cell viability was measured by means of CellTiter-Glo 3D or CellTiter-Glo 2.0 reagent (Promega) according to the manufacturers’ instructions and the Infinite M Plex reader (Tecan, i-control version 3.9.1 software). Results were normalized to vehicle (DMSO) or to shNC. For cell-doubling assays, the cell number was quantified at the corresponding time points using Guava EasyCyte flow cytometer (Luminex, CytoSoft v5.2 software).
# [4] = as above; type: cell-based; conditions: female, human, ED Fig. 10f, replicates
# Method: as §1, §2
# 340 wild-type kinases [5] = target: T1, 340 wild-type kinases (Homo sapiens, UniProt P34947); assay: selectivity profiling in a panel of 340 wild-type kinases (Reaction Biology Europe); type: binding
# T1 construct: purchased Reaction Biology Europe
# 340 wild-type kinases [6] = target: T2, 340 wild-type kinases (Homo sapiens, UniProt P32298); assay: as above; type: binding
# T2 construct: purchased Reaction Biology Europe
# [7] = weight development of treated mice; type: in vivo, mouse
# Method: No mice were excluded during treatment studies. […] GFP imaging of tumors was performed using a Hamamatsu imaging system. For quantification of compounds in the murine plasma, 20 μl of tail-vein blood was diluted with 80 μl of heparin solution, before 200 μl of ice-cold acetonitrile with a defined internal standard was added. The samples were sonicated and centrifuged and the supernatant was subjected to liquid chromatography-mass spectrometry quantification. Full blood analyses were performed with the Sysmex KX-21N hematology analyzer.
# [8] = system: KAP liver metastasis in Rag2^−/− mice; assay: survival of Rag2^−/− mice with KAP liver metastasis; type: in vivo, mouse
# Method: Subcutaneous injection, splenic seeding or cecum injection of organoids was performed in 8–10-week-old C57BL/6 N/Crl, Rag2^−/− (B6.Cg-Rag2^tm1.1Cgn/J), or CB17 Scid beige (CB17.Cg-Prkdc^scidLyst^bg-J/Crl) mice, obtained from Charles River. The organoids were dissociated into single cells, washed with PBS and injected in a 1:1 mixture of PBS and Matrigel. For murine organoids, 1 × 10^5 cells were injected into the left and right flanks or the spleen capsule and 2 × 10^6 cells were injected into the cecum wall. For human organoids, 4 × 10^5 cells were injected into the flanks of CB17 Scid beige mice. For splenic seeding and cecum injection, mice were anaesthetized using ketamine (100 mg kg^−1, intraperitoneally) and xylazin (10 mg/kg, intraperitoneally) in NaCl and a small laparotomy below the thorax was performed.
# [9] = 4 days or 10 weeks daily treatment
# T1 sequence (P34947 whole entry): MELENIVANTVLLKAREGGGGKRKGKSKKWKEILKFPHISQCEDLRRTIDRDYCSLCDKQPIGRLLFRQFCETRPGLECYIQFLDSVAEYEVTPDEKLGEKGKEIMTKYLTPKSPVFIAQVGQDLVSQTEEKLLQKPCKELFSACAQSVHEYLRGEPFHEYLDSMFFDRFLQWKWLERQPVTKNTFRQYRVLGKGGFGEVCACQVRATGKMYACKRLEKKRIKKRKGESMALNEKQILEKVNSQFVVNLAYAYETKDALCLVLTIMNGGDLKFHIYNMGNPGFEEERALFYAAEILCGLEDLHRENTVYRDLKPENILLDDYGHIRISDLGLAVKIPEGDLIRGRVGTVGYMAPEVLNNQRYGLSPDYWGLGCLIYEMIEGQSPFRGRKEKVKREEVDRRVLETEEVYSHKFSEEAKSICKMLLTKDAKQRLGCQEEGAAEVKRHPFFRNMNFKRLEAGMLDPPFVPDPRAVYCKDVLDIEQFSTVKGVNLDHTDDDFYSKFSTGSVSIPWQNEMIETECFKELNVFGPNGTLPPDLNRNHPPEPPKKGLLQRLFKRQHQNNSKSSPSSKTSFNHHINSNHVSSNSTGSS
# T2 sequence (P32298 whole entry): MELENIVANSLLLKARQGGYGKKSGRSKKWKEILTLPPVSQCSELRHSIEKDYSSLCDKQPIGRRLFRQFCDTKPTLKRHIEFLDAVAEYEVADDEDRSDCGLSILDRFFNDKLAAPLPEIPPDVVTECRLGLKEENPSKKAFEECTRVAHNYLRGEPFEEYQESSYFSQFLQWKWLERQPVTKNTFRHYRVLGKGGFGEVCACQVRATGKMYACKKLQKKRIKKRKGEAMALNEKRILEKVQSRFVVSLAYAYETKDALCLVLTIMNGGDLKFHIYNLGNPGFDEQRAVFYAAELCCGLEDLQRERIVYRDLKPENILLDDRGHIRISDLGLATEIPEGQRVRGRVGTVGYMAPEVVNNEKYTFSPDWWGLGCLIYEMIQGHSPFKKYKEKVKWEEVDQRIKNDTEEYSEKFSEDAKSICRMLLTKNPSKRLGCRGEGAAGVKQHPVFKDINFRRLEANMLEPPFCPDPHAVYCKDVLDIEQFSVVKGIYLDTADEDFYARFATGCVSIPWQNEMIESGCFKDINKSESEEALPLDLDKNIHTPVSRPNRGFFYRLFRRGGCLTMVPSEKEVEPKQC
smiles,measurement,setting,value
CNC(=O)c1ccc2c(c1)C(=O)c1ccc(Nc3ccc(F)c(NC(=O)C4CC4)c3)cc1CC2 [Compound 2015],blood cell fractions versus carrier (in words),[1]; [9],no relevant differences
same,Hemoglobin,[1]; mice treated 10w,14.6 g/dL and 14.3 g/dL and 13.7 g/dL and 14.0 g/dL
same,MCV,[1]; mice treated 10w,52.0 fL and 52.3 fL and 51.4 fL and 51.7 fL
same,MCH,[1]; mice treated 10w,14.2 pg and 14.0 pg and 13.8 pg
same,MCHC,[1]; mice treated 10w,27.4 g/dL and 26.8 g/dL and 26.9 g/dL and 26.6 g/dL
same,Hemoglobin,[1]; mice treated 4d,14.7 g/dL and 15.4 g/dL and 14.6 g/dL and 14.5 g/dL
same,MCV,[1]; mice treated 4d,52.3 fL and 51.8 fL and 51.9 fL and 51.5 fL
same,MCH,[1]; mice treated 4d,14.5 pg and 14.4 pg and 13.7 pg
same,MCHC,[1]; mice treated 4d,27.7 g/dL and 26.4 g/dL and 26.6 g/dL
same,Hematocrit (%),[1]; 10w treatment,53.3% and 53.4% and 50.9% and 52.6%
same,Hematocrit (%),[1]; 4d treatment,53.1% and 55.5% and 55.2% and 54.6%
same,DNA content (in words),KAP^2D cells,strong induction of aneuploidy and polyploidy
same,intestinal epithelium (in words),[2]; [9],did not influence the regeneration of intestinal epithelium
same,liver damage (in words),[2]; short-term and long-term treatment,no signs for liver damage
same,Cell viability (%),"[3]; 2015 0,5 µM, 5 µM",94.54% and 77.32%
same,Cell viability (%),"[3]; 2015 0,25 µM, 25 µM",97.45% and 99.37%
same,Cell viability (%),[3]; 2015 1 µM,74.60% and 77.39% and 95.83%
same,response of healthy human colon culture (in words),"[3]; SCC311, 4 d",only a very weak response
same,viability at 5 µM,"[4]; healthy human colon organoids SCC311, 2015 0,5 µM",96%
same,viability at 25 µM,"[4]; healthy human colon organoids SCC311, 2015 0,25 µM",113%
same,remaining activity at 0.2 µM,"340 wild-type kinases [5]; 0.2 µM 2015, read-out: GRK5 residual activity",106%
same,remaining activity at 1 µM,"340 wild-type kinases [5]; 1 µM 2015, read-out: GRK5 residual activity",114%
same,remaining activity at 0.2 µM,"340 wild-type kinases [5]; GRK5, 0.2 µM, read-out: residual activity",106%
same,remaining activity at 1 µM,"340 wild-type kinases [5]; GRK5, 1 µM, read-out: residual activity",114%
same,remaining activity at 0.2 µM,"340 wild-type kinases [6]; 0.2 µM 2015, read-out: GRK4 residual activity",123%
same,remaining activity at 1 µM,"340 wild-type kinases [6]; 1 µM 2015, read-out: GRK4 residual activity",104%
same,remaining activity at 0.2 µM,"340 wild-type kinases [6]; GRK4, 0.2 µM, read-out: residual activity",123%
same,remaining activity at 1 µM,"340 wild-type kinases [6]; GRK4, 1 µM, read-out: residual activity",104%
same,Weight development (%),[7]; day 12,100.0% and 97.9% and 100.9% and 99.3% and 97.1%
same,Weight development (%),[7]; day 14,100.9% and 97.9% and 97.4% and 99.6% and 101.1% and 98.2% and 100.0%
same,Weight development (%),[7]; day 16,102.6% and 98.7% and 97.0% and 100.9% and 101.1% and 99.3%
same,Weight development (%),[7]; day 18,103.8% and 98.7% and 97.4% and 101.3% and 100.7% and 100.0% and 101.8%
same,Weight development (%),[7]; day 20,102.6% and 98.7% and 97.9% and 101.3% and 100.4% and 100.0%
same,Weight development (%),[7]; day 22,106.4% and 100.4% and 98.7% and 100.0% and 103.3% and 101.1% and 101.4%
same,Weight development (%),[7]; day 24,105.1% and 103.0% and 100.0% and 101.8% and 100.4% and 101.1%
same,Weight development (%),[7]; day 26,106.4% and 100.8% and 101.7% and 102.2% and 101.5% and 100.4% and 101.1%
same,Weight development (%),[7]; day 28,106.8% and 103.4% and 100.9% and 101.3% and 103.7% and 100.7% and 101.1%
same,Weight development (%),[7]; day 30,110.3% and 105.1% and 101.7% and 105.3% and 101.5% and 100.7% and 101.1%
same,Weight development (%),[7]; day 32,106.0% and 105.5% and 102.6% and 102.2% and 102.9% and 101.4%
same,Weight development (%),[7]; day 34,106.8% and 104.7% and 100.9% and 103.5% and 106.2% and 101.1% and 100.4%
same,Weight development (%),[7]; day 36,108.1% and 103.8% and 103.9% and 105.7% and 107.0% and 99.6% and 100.0%
same,Weight development (%),[7]; day 38,109.8% and 107.2% and 103.0% and 106.1% and 109.9% and 100.7% and 101.4%
same,Weight development (%),[7]; day 40,110.3% and 103.4% and 103.0% and 106.6% and 100.7% and 99.3%
same,Weight development (%),[7]; day 42,109.4% and 106.4%
same,body weight over time (in words),"[7]; mouse, in vivo",did not lose body weight
same,treatment response in Rag2^−/− mice (in words),[8]; KAP liver metastasis,strong treatment response
same,Survival,"[8]; single animals, 1 = event, Fig. 6i",40 d of treatment and 34 d of treatment and 32 d of treatment and 39 d of treatment and 38 d of treatment and 25 d of treatment
